Among the data in US20030162777A1, “Novel N-acylated heterocycles” (Recordati S.A., priority 2001, published 2003) are Ki values, retold here.

For the experiment, the target named is T1, human 5HT1A-serotonergic receptor (Homo sapiens, UniProt P08908).
T1 construct: expressed in transfected cells; host or cells: HeLa (human cell line), stably transfected; cell membranes used
T1 sequence (P08908 1-422): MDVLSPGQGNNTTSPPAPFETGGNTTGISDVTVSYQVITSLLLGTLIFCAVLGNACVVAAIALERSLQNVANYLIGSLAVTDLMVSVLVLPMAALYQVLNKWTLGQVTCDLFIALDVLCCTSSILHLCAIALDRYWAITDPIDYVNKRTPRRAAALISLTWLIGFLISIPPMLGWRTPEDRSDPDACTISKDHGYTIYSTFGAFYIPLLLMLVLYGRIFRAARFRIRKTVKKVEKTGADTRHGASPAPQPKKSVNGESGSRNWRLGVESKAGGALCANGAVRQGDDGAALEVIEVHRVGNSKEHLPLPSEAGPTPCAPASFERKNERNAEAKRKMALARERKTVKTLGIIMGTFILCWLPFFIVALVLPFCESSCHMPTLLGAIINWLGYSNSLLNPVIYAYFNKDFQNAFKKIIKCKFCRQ
The experiment in a line: Radioligand binding to recombinant 5-HT1A receptors. As to conditions: [3H]8-OH-DPAT 1 nM, membranes of HeLa cells with human 5-HT1A receptor; Ki from IC50 by Cheng & Prusoff; read-out: Binding affinity for 5HT1A receptors, Ki. As for the experimental part:
Genomic clone G-21 coding for the human 5HT1A-serotonergic receptor was stably transfected in a human cell line (HeLa). HeLa cells were grown as monolayers in Dulbecco's modified Eagle medium (DMEM), containing 10% foetal bovine serum, gentamicin ([…]) and 5% carbon dioxide, at 37° C. The cells were detached from the growth flask at 95% confluence by a cell scraper and were lysed in cold 5 mM Tris and 5 mM EDTA buffer (pH 7.4). The homogenates were centrifuged at 40000×g×20 minutes and the pellets were resuspended in a small volume of cold 5 mM Tris and 5 mM EDTA buffer (pH 7.4) and immediately frozen and stored at −70° C. until use. On the day of experiment, the cell membranes were resuspended in incubation buffer: 50 mM Tris HCl (pH 7.4), 2.5 mM MgCl2, […] (Fargin et al., Nature 335, 358-360, 1988). The membranes were incubated in a final volume of 1 ml for 30 minutes at 30° C. with 1 nM [^3H]8-OH-DPAT, in the absence or presence of the test compounds. Non-specific binding was determined in the presence of 10 μM 5-HT. Incubation was stopped by addition of cold Tris-HC 1 buffer and rapid filtration through a 0.2%-polyethyleneimine-pretreated Whatman-GF/B or Schleicher-&-Schuell-GF52 filter.
The affinity of the tested compounds was evaluated as inhibition of specific binding of the radioligand to 5-HT1A receptors (IC50) by using the non-linear curve-fitting program Allfit (De Lean et al., Am. J. Physiol. 235, E97-E102 (1978). The IC50 value was converted to an affinity constant (Ki) by the equation of Cheng & Prusoff (Cheng Y. C., Prusoff W. H., Biochem. Pharmacol. 22, 3099-3108 (1973)).
The term Ki denotes the equilibrium dissociation constant of an inhibitor or competing ligand from its target. As to `O=C(CCCOc1ccccc1)N1c2ccccc2CCC1CN1CCN(c2nccc3ccccc23)CC1` (stereo not shown) [Example 75A11, 1-(1-Isoquinolinyl)-4-[1-(4-phenoxybutanoyl)-1,2,3,4-tetrahydroquinolin-2-ylmethyl]piperazine], the Ki is 17.1 nM.
On to `O=C(c1ccc[nH]1)N1c2ccccc2CCC1CN1CCN(c2nccc3ccccc23)CC1` (stereo not shown) [Example 75A3, 1-(1-Isoquinolinyl)-4-[1-(2-pyrrolylcarbonyl)-1,2,3,4-tetrahydroquinolin-2-ylmethyl]piperazine], for which the Ki turned out to be 14 nM.
Then `Cc1ccc(F)c(N2CCN(CC3CCc4ccccc4N3C(=O)C3CCCCC3)CC2)c1` (stereo not shown) [Example 35A12, 1-(1-Cyclohexanecarbonyl-1,2,3,4-tetrahydroquinoline-2-ylmethyl)-4-(2-fluoro-5-methylphenyl)piperazine], with 9.5 nM; and `CC(C)(C)NC(=O)N1c2ccccc2CCC1CN1CCN(c2cccc3[nH]ccc23)CC1` (stereo not shown) [Example 69A12, 1-[1-(1,1-Dimethylethylaminocarbonyl)-1,2,3,4-tetrahydroquinoline-2-ylmethyl]-1-(4-indolyl)piperazine], with 2.1 nM.
As for `Cc1ccccc1NC(=O)N1c2ccccc2CCC1CN1CCN(c2cccc3[nH]ccc23)CC1` (stereo not shown) [Example 69A, 1-(4-Indolyl)-4-[1-(2-methylphenylaminocarbonyl)-1,2,3,4-tetrahydroquinoline-2-ylmethyl]piperazine], the figure is 7.3 nM.
As for `Cc1ccc(C(=O)N2c3ccccc3CCC2CN2CCN(c3cccc4[nH]ccc34)CC2)cc1` (stereo not shown) [Example 68A70, 1-(4-Indolyl)-4-[1-(4-methylbenzoyl)-1,2,3,4-tetrahydroquinoline-2-ylmethyl]piperazine], the Ki stood at 5.3 nM.
Take `O=C(Nc1ccc(F)cc1)N1c2ccccc2CCC1CN1CCN(c2cccc3[nH]ccc23)CC1` (stereo not shown) [Example 69A2, 1-[1-(4-Fluorophenylaminocarbonyl)-1,2,3,4-tetrahydroquinoline-2-ylmethyl)-4-(4-indolyl)piperazine]: the Ki came to 24 nM.
In the case of `O=C(C1CCCCC1)N1c2ccc(F)cc2CCC1CN1CCN(c2ccccc2OCC(F)(F)F)CC1` (stereo not shown) [Example 5, 1-(1-Cyclohexanecarbonyl-6-fluoro-1,2,3,4-tetrahydroquinoline-2-ylmethyl)-4-[2-(2,2,2-trifluoroethoxy)phenyl]piperazine], the Ki was 10.7 nM.
As for `O=C(C1CCC1)N1c2ccccc2CCC1CN1CCN(c2cccc3c2OCCO3)CC1` (stereo not shown) [Example 76A8], the figure is 19.2 nM; as for `O=C(Nc1ccccc1)N1c2ccccc2CCC1CN1CCN(c2cccc3[nH]ccc23)CC1` (stereo not shown) [Example 31, 1-(4-Indolyl)-4-(1-phenylaminocarbonyl-1,2,3,4-tetrahydroquinoline-2-ylmethyl)piperazine], 12.8 nM.
`COc1cc(F)ccc1N1CCN(CC2CCc3cc(-c4ccc(C(C)=O)s4)ccc3N2C(=O)C2CCCCC2)CC1` (stereo not shown) [Example 63, 1-[6-(5-Acetyl-2-thienyl)-1-cyclohexanecarbonyl-1,2,3,4-tetrahydroquinoline-2-ylmethyl)-4-(4-fluoro-2-methoxyphenyl)piperazine]: the Ki worked out at 42.9 nM.
In the case of `CN(CCOc1ccccc1OCC(F)(F)F)CC1CCc2ccccc2N1C(=O)C1CCCCC1` (stereo not shown) [Example 72A85, N-(1-Cyclohexanecarbonyl-1,2,3,4-tetrahydroquinolin-2-ylmethyl)-2-[2-(2,2,2-trifluoroethoxy)phenoxy]ethylmethylamine], the Ki was found to be 3.6 nM.
With `COc1cc(F)ccc1N1CCN(CC2CCc3ccccc3N2C(=O)Cc2ccsc2)CC1` (stereo not shown) [Example 74A9, 1-(4-Fluoro-2-methoxyphenyl)-4-[1-(3-thienylacetyl)-1,2,3,4-tetrahydroquinolin-2-ylmethyl]piperazine], the Ki was 38.3 nM.
Then `COc1cc(F)ccc1N1CCN(CC2CCc3ccccc3N2C(=O)CC(C)(C)C)CC1` (stereo not shown) [Example 74A1, 1-(3,3-Dimethylbutanoyl-1,2,3,4-tetrahydroquinolin-2-ylmethyl)-4-(4-fluoro-2-methoxyhenyl)piperazine], with 2 nM; and `Cc1oc(S(=O)(=O)N2CCCC2)cc1C(=O)N1c2ccccc2CCC1CN1CCN(c2cccc3[nH]ccc23)CC1` (stereo not shown) [Example 68A59, 1-(4-Indolyl)-4-[1-(2-methyl-5-pyrrolidin-1-ylsulfonylfuran-3-carbonyl)-1,2,3,4-tetrahydroquinoline-2-ylmethyl]piperazine], with 46.5 nM.
Then `O=C(N1CCCC1)N1c2ccccc2CCC1CN1CCN(c2cccc3[nH]ccc23)CC1` (stereo not shown) [Example 33, 1-(4-Indolyl)-4-(1-pyrrolidinecarbonyl-1,2,3,4-tetrahydroquinoline-2-ylmethyl)piperazine], with 47.7 nM; and `O=C(C1CCCCC1)N1c2ccccc2CCC1CN1CCN(c2cc(Cl)ccc2F)CC1` (stereo not shown) [Example 60A1, 1-(5-Chloro-2-fluorophenyl)-4-(1-cyclohexanecarbonyl-1,2,3,4-tetrahydroquinoline-2-ylmethyl)piperazine], with 8.1 nM.
Then `CC(C)(C)C(=O)N1c2ccccc2CCC1CN1CCN(c2cccc3[nH]ccc23)CC1` (stereo not shown) [Example 68A36, 1-[1-(2,2-Dimethylpropionyl)-1,2,3,4-tetrahydroquinoline-2-ylmethyl]-4-(4-indolyl)piperazine], with 10.7 nM; and `O=C(C1CCCCC1)N1c2ccccc2CCC1CN1CCN(Cc2cc(Cl)ccc2Cl)CC1` (stereo not shown) [Example 35A36, 1-(1-Cyclohexanecarbonyl-1,2,3,4-tetrahydroquinoline-2-ylmethyl)-4-(2,5-dichlorobenzyl)piperazine], with 2.4 nM; and `O=C(C1CCCCC1)N1c2ccccc2CCC1CN1CCC(c2cccc(Cl)c2Cl)CC1` (stereo not shown) [Example 72A51, 1-(1-Cyclohexanecarbonyl-1,2,3,4-tetrahydroquinolin-2-ylmethyl)-4-(2,3-dichlorophenyl)piperidine], with 15 nM.
For `COc1ccc(C#N)cc1N1CCN(CC2CCc3ccccc3N2C(=O)C2CCCCC2)CC1` (stereo not shown) [Example 35A24, 1-(5-Cyano-2-methoxyphenyl)-4-(1-cyclohexanecarbonyl-1,2,3,4-tetrahydroquinoline-2-ylmethyl)piperazine], the Ki worked out at 11.6 nM.
As for `CCOc1cc(Cl)ccc1N1CCN(CC2CCc3ccccc3N2C(=O)C2CCCCC2)CC1` (stereo not shown) [Example 62A3, 1-(4-Chloro-2-ethoxyphenyl)-4-(1-cyclohexanecarbonyl-1,2,3,4-tetrahydroquinoline-2-ylmethyl)piperazine], the figure is 5.7 nM; as for `O=C(Cc1ccc(C(F)(F)F)cc1)N1c2ccccc2CCC1CN1CCN(c2cccc3[nH]ccc23)CC1` (stereo not shown) [Example 68A31], 41.8 nM.
`O=C(C1CCCCC1)N1c2cc(F)ccc2CCC1CN1CCN(c2cccc3[nH]ccc23)CC1` (stereo not shown) [Example 46, 1-(1-Cyclohexanecarbonyl-7-fluoro-1,2,3,4-tetrahydroquinoline-2-ylmethyl)-4-(4-indolyl)piperazine]: the Ki came out at 11.2 nM.
Then `O=C(c1cccnc1)N1c2ccccc2CCC1CN1CCN(c2cccc3[nH]ccc23)CC1` (stereo not shown) [Example 68A33, 1-(4-Indolyl)-4-[1-(3-pyridylcarbonyl)-1,2,3,4-tetrahydroquinoline-2-ylmethyl]piperazine], with 13.3 nM; and `Cc1cccc(N2CCN(CC3CCc4ccccc4N3C(=O)C3CCCCC3)CC2)n1` (stereo not shown) [Example 72A20, 1-(1-Cyclohexanecarbonyl-1,2,3,4-tetrahydroquinolin-2-ylmethyl)-4-(6-methylpyridin-2-yl)piperazine], with 5.4 nM.
In the case of `O=C(C1CCCCC1)N1c2ccccc2CCC1CN1CCC(c2cccc(F)c2)CC1` (stereo not shown) [Example 72A39, 1-(1-Cyclohexanecarbonyl-1,2,3,4-tetrahydroquinolin-2-ylmethyl)-4-(3-fluorophenyl)piperidine], the Ki came to 39.1 nM.
Consider `O=C(COc1ccccc1Cl)N1c2ccccc2CCC1CN1CCN(c2cccc3[nH]ccc23)CC1` (stereo not shown) [Example 68A50, 1-[1-[2-(2-Chlorophenoxy)acetyl]-1,2,3,4-tetrahydroquinoline-2-ylmethyl]-4-(4-indolyl)piperazine], for which the Ki was determined as 27.3 nM.
